Source: ChEMBL document CHEMBL1135450, “Discovery of phenyl alanine derived ketoamides carrying benzoyl residues as novel calpain inhibitors” (Bioorg Med Chem Lett, 2002)
Where a SMILES comes first, the peptide text is derived from it. [ ]: non-standard residue; d: D form. The star is where a group is joined. ξ: configuration not given here. ξF = NC(Cc1ccccc1)C(=O)O; Cbz = O=C(OCc1ccccc1)*

How the values were obtained:
[1] = biological target: T1, Calpain-1 catalytic subunit (Homo sapiens, UniProt P07384); test: Inhibition of calpain, using human mu-calpain isolated from erythrocytes and Suc-Leu-Tyr-AMC as the fluorogenic substrate; format: cell-free
T1 sequence (P07384 whole entry): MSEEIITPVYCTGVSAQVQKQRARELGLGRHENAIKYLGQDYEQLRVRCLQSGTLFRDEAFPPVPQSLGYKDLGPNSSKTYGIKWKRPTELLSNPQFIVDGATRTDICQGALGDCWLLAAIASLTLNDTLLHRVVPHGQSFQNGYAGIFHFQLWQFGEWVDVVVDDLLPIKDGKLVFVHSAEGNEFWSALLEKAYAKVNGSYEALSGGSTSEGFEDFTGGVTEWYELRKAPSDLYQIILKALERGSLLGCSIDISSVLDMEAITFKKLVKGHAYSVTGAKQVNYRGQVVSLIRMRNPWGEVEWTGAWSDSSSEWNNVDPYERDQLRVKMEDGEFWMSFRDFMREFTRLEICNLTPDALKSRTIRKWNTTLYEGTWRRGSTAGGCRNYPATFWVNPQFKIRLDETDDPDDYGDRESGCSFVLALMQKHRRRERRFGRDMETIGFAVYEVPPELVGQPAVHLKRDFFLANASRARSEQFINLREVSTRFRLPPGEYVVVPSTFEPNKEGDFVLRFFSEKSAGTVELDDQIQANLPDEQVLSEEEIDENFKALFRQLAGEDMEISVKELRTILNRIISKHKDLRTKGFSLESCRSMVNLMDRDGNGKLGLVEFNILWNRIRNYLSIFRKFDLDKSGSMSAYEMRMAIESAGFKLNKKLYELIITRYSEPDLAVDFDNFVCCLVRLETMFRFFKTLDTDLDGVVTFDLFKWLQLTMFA

[2] = Inhibition of calpain-mediated p60 c-Src degradation in human thrombocytes; format: functional, cell-based
Procathepsin L = Procathepsin L (Homo sapiens, UniProt P07711); test: The compound was evaluated for inhibition of cathepsin L
Sequence of Procathepsin L (P07711 whole entry): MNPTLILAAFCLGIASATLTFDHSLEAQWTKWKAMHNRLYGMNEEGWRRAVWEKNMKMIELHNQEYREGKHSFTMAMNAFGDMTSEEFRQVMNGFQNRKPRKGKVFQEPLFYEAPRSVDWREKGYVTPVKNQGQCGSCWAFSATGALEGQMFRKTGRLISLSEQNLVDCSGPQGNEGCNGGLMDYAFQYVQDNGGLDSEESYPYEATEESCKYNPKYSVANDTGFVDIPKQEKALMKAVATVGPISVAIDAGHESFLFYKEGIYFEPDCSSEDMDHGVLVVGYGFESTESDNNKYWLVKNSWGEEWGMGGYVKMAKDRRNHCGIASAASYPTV

Cathepsin B = Cathepsin B (Homo sapiens, UniProt P07858); test: Inhibition of cathepsin B

| Structure (SMILES) | Ki [1] | further results |
| --- | --- | --- |
| O=CC(Cc1ccccc1)NC(=O)c1ccccc1C#Cc1ccccc1 (stereo not given) | 450 nM |  |
| CC(C)[C@H](NC(=O)OCc1ccccc1)C(=O)NC(C=O)Cc1ccccc1 (stereo partly drawn) (Cbz-Val-[ξF]-aldehyde) |  | IC50 [2]: 700 nM |
| O=CC(Cc1ccccc1)NC(=O)c1ccccc1CCc1ccccc1 (stereo not given) | 280 nM |  |
| O=CC(Cc1ccccc1)NC(=O)c1ccccc1COc1ccccc1 (stereo not given) | 450 nM |  |
| O=CC(Cc1ccccc1)NC(=O)c1ccccc1 (stereo not given) | 1080 nM |  |
| O=CC(Cc1ccccc1)NC(=O)c1ccccc1Cc1ccc2ccccc2c1 (stereo not given) | 200 nM |  |
| O=CC(Cc1ccccc1)NC(=O)c1ccccc1Cc1ccccc1 (stereo not given) | 370 nM |  |
| O=CC(Cc1ccccc1)NC(=O)c1ccccc1C(=O)c1ccccc1 (stereo not given) | 230 nM |  |

Now from value to compound, other results behind:

| Ki [1] | Structure (SMILES) | further results |
| --- | --- | --- |
| 80 nM | COc1ccc(/C=C/c2ccccc2C(=O)NC(Cc2ccccc2)C(=O)C(N)=O)cc1OC (stereo not given) |  |
| 40 nM | NC(=O)C(=O)C(Cc1ccccc1)NC(=O)c1ccccc1-c1ccccc1 (stereo not given) |  |
| 15 nM | O=CC(Cc1ccccc1)NC(=O)c1ccccc1/C=C/c1ccc2ccccc2c1 (stereo not given) |  |
| 50 nM | O=CC(Cc1ccccc1)NC(=O)c1ccccc1OCc1ccc2ccccc2c1 (stereo not given) |  |
| 40 nM | COc1ccc(/C=C/c2ccccc2C(=O)NC(C=O)Cc2ccccc2)cc1OC (stereo not given) |  |
| 140 nM | O=CC(Cc1ccccc1)NC(=O)c1ccccc1/C=C/c1ccccc1 (stereo not given) |  |
| 6 nM | NC(=O)C(=O)C(Cc1ccccc1)NC(=O)c1ccccc1/C=C/c1ccc2ccccc2c1 (stereo not given) | IC50 [2]: 1400 nM; Ki (Procathepsin L): 6100 nM; Ki (Cathepsin B): 99 nM |
| 90 nM | O=CC(Cc1ccccc1)NC(=O)c1ccccc1-c1ccccc1 (stereo not given) |  |
| 50 nM | O=CC(Cc1ccccc1)NC(=O)c1ccccc1Oc1ccccc1 (stereo not given) |  |
